The test system of assay [1] is MB49 (bladder) tumors. The assay is described as follows: WST11 VTP and Gemzar in mice grafted with MB49 tumors (Scheme 2). In kind it is in vivo. The conditions noted are these: for animals cured (fraction): WST11 9 mg/kg VTP day 15 post grafting, Gemzar 50 mg/kg, 12 treatments/90 days; for cure / tumor progression: single treatment modalities. How it is done: • (i) Bacteriochlorophyll Derivatives—The Bchl derivatives and RGD-conjugates thereof were provided by Steba Biotech (Rehovot, Israel). […] Concentration was verified by spectrophotometric measurement. STL-7012 was provided as dipotassium salt. Working solution was prepared by dissolving STL-7012 K^+ salt in 5% mannitol solution (1 mg/ml). […] WST11 was supplied as a powder and kept in the dark at −20° C. Stock was prepared by dissolving WST11 in DDW containing 5% glucose and 0.67% mannitol, aliquoted and lyophilized. Working solution was reconstituted with DDW and the concentration of solution was confirmed spectrophotometrically. Alternatively, Clinical WST11 (batch: P00611, and 10-130611) was supplied as lyophilized formulation. Material was dissolved in 5% dextrose, aliquoted and stored at −20° C. At the day of treatment the aliquot was thawed, filtered and the concentration of solution was confirmed spectrophotometrically. • (ii) Chemotherapeutic drugs preparation and storage—Gemcitabine (GEM, Gemzar®, Lilly) was purchased from a local pharmacy as a powder, dissolved in saline to a concentration of 38 mg/ml, aliquoted and stored at −20° C. […] Cyclophosphamide (CTX, Endoxan®, Baxter Oncology Gmbh, Germany) was purchased from a local pharmacy. A stock solution of 20 mg/ml was prepared by dissolving in 0.9% NaCl, aliquoted and stored at −20° C. Aliquots were thawed, diluted with saline if needed to a desired concentration and used on the same day prepared at indicated doses. • (iii) Murine cell lines—Mammary luciferase (luc)-labeled 4T1 cell line (4T1-Luc) was a kind gift from Dr. Zvi Granot (Faculty of Medicine, The Hebrew University of Jerusalem, Israel); melanoma B16-F10 cell line was obtained from the American Type Culture Collection (ATCC, Manassas, Va.); bladder MB49 cell line was a kind gift from James Allison (MSKCC, New York, USA), and luc-labeled MB49-cell line was established using the murine stem cell virus (MSCV)-puromycin-luc-GFP construct (kindly provided by Dr. Emily Cheng, Human Oncology and Pathogenesis Program, MSKCC). 4T1 and MB49 cells were maintained in DMEM medium and B16-F10 cells in RPMI medium supplemented with 1 mmol/L sodium pyruvate, 10% fetal calf serum (FCS), 250 μg/ml hygromycin, 0.06 mg/ml penicillin and 0.1 mg/ml streptomycin. The cells were grown as monolayer at 37° C. in a humidified atmosphere (5% CO2, 95% air). • (iv) Murine tumor models—Female, Balb/c mice (6-8 week old) were grafted either subcutaneously (s.c.) into the right hind leg or orthotopically with 1×10^6 4T1 cells suspended in 50 or 1000 PBS. For the rechallenge study, 2×10^5 4T1 cells were orthotopically grafted. For bladder cancer model, 5×10^4 of MB49 or MB49-luciferase cell line were s.c. injected into the right flank of C57B/6 male mice (7-8 weeks old, Taconic, Hudson, N.Y.) 15 days prior to VTP treatment. For the efficacy study of VTP in immune compromised mice, the same number of MB49 cells was injected in the flank of Rag^−/− on C57B/6 background or C57B/6 male mice (7-8 week old, Jackson Laboratory, Bar Harbor, Me.). For bilateral model of MB49 cells, animals received 5×10^4 MB49 cells in the right flank and 5×10^4 cells in the left flank on days −15 and +1, respectively. All experimental procedures were approved by the Institutional Animal Care and Use Committee at the Weizmann Institute of Science (Rehovot, Israel) and The Memorial Sloan Kettering Cancer Center (MSKCC, New York, USA). […] Whole body imaging of luciferase-transfected tumors and metastases were recorded five minutes following 75 mg Kg^−1 intraperitoneal (i.p.) injection of D-luciferin with respective filter sets. • (vi) PDT treatment protocol: 4T1-Luc cells were grafted in the mammary pad of Balb/c mice. […] During the first two post-treatment days, the mice received analgesia (2.5 mg/kg Flunexin, once daily). Ablation of primary tumors was assessed every 7 days by imaging the tumor's luciferase-mediated bioluminescence signal, using IVIS. […]

For assay [2], the system named is MB49 (bladder) tumors. The assay is described as follows: Systemic anti-tumor response in MB49 mice: second tumor (bilateral model) and tail vein re-challenge (Scheme 3). Type of assay: in vivo. The conditions noted are these: for animals with growth of second tumor grafted at left hind leg 1 day post VTP (fraction): bilateral model, Gemzar 50 mg/kg. As for the experimental part:
• (i) Bacteriochlorophyll Derivatives—The Bchl derivatives and RGD-conjugates thereof were provided by Steba Biotech (Rehovot, Israel). […] Concentration was verified by spectrophotometric measurement. STL-7012 was provided as dipotassium salt. Working solution was prepared by dissolving STL-7012 K^+ salt in 5% mannitol solution (1 mg/ml). […] WST11 was supplied as a powder and kept in the dark at −20° C. Stock was prepared by dissolving WST11 in DDW containing 5% glucose and 0.67% mannitol, aliquoted and lyophilized. Working solution was reconstituted with DDW and the concentration of solution was confirmed spectrophotometrically. Alternatively, Clinical WST11 (batch: P00611, and 10-130611) was supplied as lyophilized formulation. Material was dissolved in 5% dextrose, aliquoted and stored at −20° C. At the day of treatment the aliquot was thawed, filtered and the concentration of solution was confirmed spectrophotometrically. • (ii) Chemotherapeutic drugs preparation and storage—Gemcitabine (GEM, Gemzar®, Lilly) was purchased from a local pharmacy as a powder, dissolved in saline to a concentration of 38 mg/ml, aliquoted and stored at −20° C. […] Cyclophosphamide (CTX, Endoxan®, Baxter Oncology Gmbh, Germany) was purchased from a local pharmacy. A stock solution of 20 mg/ml was prepared by dissolving in 0.9% NaCl, aliquoted and stored at −20° C. […] Whole body imaging of luciferase-transfected tumors and metastases were recorded five minutes following 75 mg Kg^−1 intraperitoneal (i.p.) injection of D-luciferin with respective filter sets. • (vi) PDT treatment protocol: 4T1-Luc cells were grafted in the mammary pad of Balb/c mice. […] Ablation of primary tumors was assessed every 7 days by imaging the tumor's luciferase-mediated bioluminescence signal, using IVIS. […]

Assay [3] is described as follows: Spleen weight of animals orthotopically grafted with 4T1 cancer cells. Type of assay: in vivo, mice. Particulars: 1 and 3 weeks. From the text:
FIG. 13 compares changes in the spleen weight of animals orthotopically grafted with 4T1 cancer cells and not treated (control) with tumor bearing animals that underwent Gemzar treatment, WST11 VTP treatment or their combination.

Assay [4] concerns CD11b+ cells, neutrophils/G-MDSC and monocytes/M-MDSC. In words: Innate immune response (spleen CD11b+ IHC, FACS of MDSC) of mice bearing MB49 tumors. Particulars: for CD11b+ cells in the spleen (IHC): day 6 post VTP; for neutrophils/G-MDSC and monocytes/M-MDSC in splenocytic cells (FACS): day 9 post treatment, Gemzar 60 or 120 mg/kg. Type of assay: in vivo. How it is done:
• (i) Bacteriochlorophyll Derivatives—The Bchl derivatives and RGD-conjugates thereof were provided by Steba Biotech (Rehovot, Israel). […] Concentration was verified by spectrophotometric measurement. STL-7012 was provided as dipotassium salt. Working solution was prepared by dissolving STL-7012 K^+ salt in 5% mannitol solution (1 mg/ml). […] WST11 was supplied as a powder and kept in the dark at −20° C. Stock was prepared by dissolving WST11 in DDW containing 5% glucose and 0.67% mannitol, aliquoted and lyophilized. Working solution was reconstituted with DDW and the concentration of solution was confirmed spectrophotometrically. Alternatively, Clinical WST11 (batch: P00611, and 10-130611) was supplied as lyophilized formulation. Material was dissolved in 5% dextrose, aliquoted and stored at −20° C. At the day of treatment the aliquot was thawed, filtered and the concentration of solution was confirmed spectrophotometrically. • (ii) Chemotherapeutic drugs preparation and storage—Gemcitabine (GEM, Gemzar®, Lilly) was purchased from a local pharmacy as a powder, dissolved in saline to a concentration of 38 mg/ml, aliquoted and stored at −20° C. […] Cyclophosphamide (CTX, Endoxan®, Baxter Oncology Gmbh, Germany) was purchased from a local pharmacy. A stock solution of 20 mg/ml was prepared by dissolving in 0.9% NaCl, aliquoted and stored at −20° C. Aliquots were thawed, diluted with saline if needed to a desired concentration and used on the same day prepared at indicated doses. • (iii) Murine cell lines—Mammary luciferase (luc)-labeled 4T1 cell line (4T1-Luc) was a kind gift from Dr. Zvi Granot (Faculty of Medicine, The Hebrew University of Jerusalem, Israel); melanoma B16-F10 cell line was obtained from the American Type Culture Collection (ATCC, Manassas, Va.); bladder MB49 cell line was a kind gift from James Allison (MSKCC, New York, USA), and luc-labeled MB49-cell line was established using the murine stem cell virus (MSCV)-puromycin-luc-GFP construct (kindly provided by Dr. Emily Cheng, Human Oncology and Pathogenesis Program, MSKCC). 4T1 and MB49 cells were maintained in DMEM medium and B16-F10 cells in RPMI medium supplemented with 1 mmol/L sodium pyruvate, 10% fetal calf serum (FCS), 250 μg/ml hygromycin, 0.06 mg/ml penicillin and 0.1 mg/ml streptomycin. […] Whole body imaging of luciferase-transfected tumors and metastases were recorded five minutes following 75 mg Kg^−1 intraperitoneal (i.p.) injection of D-luciferin with respective filter sets. • (vi) PDT treatment protocol: 4T1-Luc cells were grafted in the mammary pad of Balb/c mice. […] Ablation of primary tumors was assessed every 7 days by imaging the tumor's luciferase-mediated bioluminescence signal, using IVIS. […]

For the molecule `Nc1ccn([C@@H]2O[C@H](CO)[C@@H](O)C2(F)F)c(=O)n1` [Gemzar, Gemcitabine], in the assay with MB49 (bladder) tumors [1], the “animals cured (fraction)” value is 0/19, the cure worked out at 0% and the tumor progression entry is listed as “slightly delayed tumor progression”. The “animals with growth of second tumor grafted at left hind leg 1 day post VTP (fraction)” value in the assay on MB49 (bladder) tumors [2] is listed as 15/20. In addition, in assay [3], the “six fold increase in spleen weight found in non-treated animals” value is “almost completely avoided”. In addition, in assay [4], the “CD11b+ cells in the spleen (IHC)” value is “depletes CD11b+ cells”; the “neutrophils/G-MDSC and monocytes/M-MDSC in splenocytic cells (FACS)” value is “depleted systemically”.

Turning to `CCC1c2cc3[n-]c(c(CC(=O)OC)c4nc(cc5[n-]c(cc(n2)C1C)c(C(C)=O)c5C)C(C)C4CCC(=O)[O-])c(C(=O)NCCS(=O)(=O)[O-])c3C.[K+].[K+].[Pd+2]` (stereo not drawn) [WST11, Palladium 3^1-oxo-15-methoxycarbonylmethyl-rhodobacteriochlorin 13^1-(2-sulfoethyl) amide dipotassium salt], in the assay on MB49 (bladder) tumors [1], the “animals cured (fraction)” value is recorded as 3/19, the cure amounted to 16% and the tumor progression result is “slightly delayed tumor progression”. Also, the “animals with growth of second tumor grafted at left hind leg 1 day post VTP (fraction)” value in the assay on MB49 (bladder) tumors [2] is recorded as 12/19. In addition, the “surviving mice that rejected the tumor cells” value with MB49 (bladder) tumors [2] (re-challenge by tail vein injection of MB49 cells at day 125 post VTP) stood at 70%. Besides, the “six fold increase in spleen weight found in non-treated animals” value in assay [3] is recorded as “completely prevented”. Further, in assay [4], the “CD11b+ cells in the spleen (IHC)” value is given as “depletes CD11b+ cells”; the “neutrophils/G-MDSC and monocytes/M-MDSC in splenocytic cells (FACS)” value is recorded as “depleted systemically”.

The values are drawn from US11278555B2, “Combinational therapies for treatment of cancer comprising a bacteriochlorophyll derivative” (Yeda Research and Development Co. Ltd., priority 2016, dated 2022).
